In patent US20060069132A1, “Azolecarboxamide herbicides” (priority 2004, published 2006):

Tests used:
Assay in all cases: Test C postemergence herbicide test
wild oat = type: in vivo, Avenafatua
Method: (§1) At the same time, plants selected from these crop and weed species and also winter barley (Hordeum vulgare L.), blackgrass (Alopecurus myosuroides Huds.), canarygrass (Phalaris minor Retz.), chickweed (Stellaria media (L.) Vill.), downy bromegrass (Bromus tectorum L.), green foxtail (Setaria viridis (L.) Beauv.), Italian ryegrass (Lolium multiflorum Lam.), wheat (Triticum aestivum L.), wild oat (Avenafatua L.) and windgrass (Apera spica-venti (L.) Beauv.) were treated with postemergence applications of some of the test chemicals formulated in the same manner. Plants ranged in height from 2 to 18 cm (1- to 4-leaf stage) for postemergence treatments. Plant species in the flooded paddy test consisted of rice (Oryza sativa), smallflower umbrella sedge (Cyperus difformis L.), ducksalad (Heteranthera limosa (Sw.) Willd.) and barnyardgrass (Echinochloa crus-galli (L.) Beauv.) grown to the 2-leaf stage for testing. Treated plants and controls were maintained in a greenhouse for 12 to 14 days, after which time all species were compared to controls and visually evaluated. Plant response ratings, summarized in Table C, are based on a scale of 0 to 100 where 0 is no effect and 100 is complete control. A dash (-) response means no test result.

green foxtail = type: in vivo, Setaria viridis
Method: as §1

winter barley = type: in vivo, Hordeum vulgare; conditions: for Barley, Winter plant response rating: 500 g ai/ha
Method: as §1

windgrass = type: in vivo, Apera spica-venti
Method: as §1

[1] = Postemergence, 500 g ai/ha, scale 0 to 100
[2] = Postemergence, 250 g ai/ha, scale 0 to 100, 0 no effect, 100 complete control
[3] = postemergence, 125 g ai/ha, scale 0 to 100
[4] = postemergence, 62 g ai/ha, scale 0 to 100
[5] = Postemergence, 125 g ai/ha, scale 0 to 100, 0 no effect, 100 complete control
[6] = postemergence, 62 g ai/ha, scale 0 to 100 (0 no effect, 100 complete control)
[7] = Postemergence, 500 g ai/ha, scale 0 to 100, 0 no effect, 100 complete control

Row | Structure (SMILES) | Oat, Wild plant response rating (wild oat; [1]) | Plant response rating, Oat, Wild (wild oat; [2]) | Plant response rating, Oat, Wild (wild oat; [3]) | Plant response rating, Oat, Wild (wild oat; [4]) | Foxtail, Green plant response rating (green foxtail; [1]) | Plant response rating, Foxtail, Green (green foxtail; [2]) | Plant response rating, Foxtail, Green (green foxtail; [3]) | Plant response rating, Foxtail, Green (green foxtail; [4]) | Barley, Winter plant response rating (winter barley; Postemergence, scale 0 to 100) | Plant response rating, Barley, Winter (winter barley; [5]) | Plant response rating, Barley, Winter (winter barley; [2]) | Plant response rating, Barley, Winter (winter barley; [6]) | Windgrass plant response rating (windgrass; [1]) | Plant response rating, Windgrass (windgrass; [2]) | Plant response rating, Windgrass (windgrass; [3]) | Plant response rating, Windgrass (windgrass; [4]) | Plant response rating, Barley, Winter (winter barley; postemergence, 31 g ai/ha, scale 0 to 100) | Plant response rating, Oat, Wild (wild oat; [7]) | Plant response rating, Foxtail, Green (green foxtail; [7]) | Plant response rating, Windgrass (windgrass; [7])
1 | CCn1nc(C(C)(C)C)cc1C(=O)Nc1cccc(OC(F)F)c1 [Compound 332] | 70 | 70 | 65 | 50 | 70 | 50 | 40 | 35 | 40 | 35 | 40 | 35 | 75 | 65 | 60 | 35 |  |  |  | 
2 | CCn1nc(C(C)(C)C)cc1C(=O)Nc1cc(C(=S)N(C)C)ccn1 [Compound 334] |  | 95 | 75 | 55 |  | 45 | 35 | 35 |  | 30 | 30 | 20 |  | 75 | 60 | 60 | 20 |  |  | 
3 | CCNC(=O)c1ccc(F)c(NC(=O)c2c3c(nn2CC)C(C)(C)CC3)c1 [Compound 353] |  | 40 | 30 | 10 |  | 20 | 20 | 15 | 25 | 15 | 20 | 5 |  | 10 | 10 | 0 |  | 60 | 30 | 10
